Data as given in patent US20100093973A1, “POLY(AMINO ACID) COMPOUND HAVING INHIBITORY ACTIVITY ON ABSORPTION OF PHOSPHORUS AND PHOSPHORUS ABSORPTION INHIBITOR” (priority 2007, published 2010).
Structures can show the parent of a compound that is named as a salt.

Columns and labels:
in vitro = assay type: cell-based; conditions: dog
Description: MDCK Cells were inoculated into wells of a 96-well plate filled with D-MEM/F12 culture medium (available from GIBCO Company) supplemented with 10% FBS (available from TISSUE CULTURE BIOLOGICALS Company). After the cultivation of the cells for 3 days in a CO2 incubator, the culture medium was removed, a culture medium, in which each candidate substance (synthesized compound) had been dissolved, was added, followed by the cultivation for one day. To each well, there was added 10 μL of Cell Count Reagent SF (available from NAKARAI TESUKU K.K.), followed by the cultivation thereof for 2 hours and the subsequent determination of the absorbance observed at a wavelength of 460 nm. The IC50 values each were calculated on the basis of these measured values.

absorption of phosphorus = assay: Evaluation of efficacy as phosphorus absorption inhibitors: serum radioactivity AUC (0-120 min) after oral 32P NaH2PO4 in rats, inhibitory rate; assay type: in vivo; conditions: rats of SD line, oral dose 100 mg/5 mL/kg, 32P NaH2PO4 given orally 5 min later, serum radioactivity AUC 0-120 min vs control
Description: Seven-week-old male rats of SD line (available from SANKYO Labo-Service Co., Ltd.), as test animals, were kept and acclimatized using the usual feed (Solid CRF-1 available from ORIENTAL Yeast Co., Ltd.) and they were used in the following tests after they were fasted overnight. Each candidate substance (synthesized compound) dissolved in distilled water for injection (Otsuka Pharmaceutical Co., Ltd.) was orally administered in a dose of 100 mg/5 mL/kg or 50 mg/5 mL/kg and after 5 minutes from the administration, 3 mg/3 mL/kg, 1 MBq/kg of an NaH2PO4 solution containing ^32P (available from PerkinElmer Company) was orally administered. Subsequently, the blood was collected with the elapse of time through the caudal vein of the test animal to thus obtain the serum thereof and the radioactivity of 40 μL of the serum was determined using a liquid scintillation counter. The inhibitory rate (%) for each candidate compound was calculated on the basis of the foregoing measured values according to the following equation: […]

Row | Structure (SMILES) | IC50 at 1 day (in vitro) | Inhibitory Rate (%) of Phosphorus Absorption (absorption of phosphorus)
1 | NCCC[C@H](N)C(=O)NCCC[C@H](N)C(=O)NCCCN(CCCCN(CCCNC(=O)[C@@H](N)CCCNC(=O)[C@@H](N)CCCN)C(=O)[C@@H](N)CCCNC(=O)[C@@H](N)CCCN)C(=O)[C@@H](N)CCCNC(=O)[C@@H](N)CCCN [Example 14, SPM(Orn)8 Hydrochloride] | > 10000 µg/mL | 46%
2 | NCCCC[C@H](N)C(=O)NCCCC[C@H](N)C(=O)N(CCCCN(CCCNC(=O)[C@@H](N)CCCCN)C(=O)[C@@H](N)CCCCNC(=O)[C@@H](N)CCCCN)CCCNC(=O)[C@@H](N)CCCCN [Example 6, SPM(Lys)6 Hydrochloride] | > 10000 µg/mL | 30%
3 | NCCC[C@H](N)C(=O)NCCCN(CCCCN(CCCNC(=O)[C@@H](N)CCCN)C(=O)[C@@H](N)CCCN)C(=O)[C@@H](N)CCCN [Example 4, SPM(Orn)4 Hydrochloride] | > 10000 µg/mL | 58%
4 | NCCCC[C@H](NC(=O)[C@@H](N)CCCCN)C(=O)NCCCC[C@H](N)C(=O)NCCCN(CCCCN(CCCNC(=O)[C@@H](N)CCCCNC(=O)[C@H](CCCCN)NC(=O)[C@@H](N)CCCCN)C(=O)[C@@H](N)CCCCNC(=O)[C@H](CCCCN)NC(=O)[C@@H](N)CCCCN)C(=O)[C@@H](N)CCCCNC(=O)[C@H](CCCCN)NC(=O)[C@@H](N)CCCCN [Example 29, SPM(Lys)12 Hydrochloride] | > 10000 µg/mL | 55%
